In general, IC50 refers to the concentration needed to halve the response being measured. A lower IC50 goes with inhibition by little substance.

HIS-TGFβR1 T204D, sequence (P36897 34-503 T204D): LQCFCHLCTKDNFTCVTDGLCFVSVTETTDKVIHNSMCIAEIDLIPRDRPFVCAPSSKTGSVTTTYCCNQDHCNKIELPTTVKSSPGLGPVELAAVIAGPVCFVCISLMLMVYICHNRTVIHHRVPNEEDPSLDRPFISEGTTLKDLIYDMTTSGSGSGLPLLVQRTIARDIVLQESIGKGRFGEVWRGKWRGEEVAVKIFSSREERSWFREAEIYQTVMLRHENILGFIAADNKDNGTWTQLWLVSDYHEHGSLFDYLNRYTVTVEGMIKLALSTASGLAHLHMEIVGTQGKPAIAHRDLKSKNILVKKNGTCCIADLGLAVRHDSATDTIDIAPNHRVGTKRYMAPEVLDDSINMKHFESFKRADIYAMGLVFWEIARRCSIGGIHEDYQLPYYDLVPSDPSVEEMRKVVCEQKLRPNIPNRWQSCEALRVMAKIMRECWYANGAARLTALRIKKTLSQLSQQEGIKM

This test concerns the target HIS-TGFβR1 T204D (Homo sapiens (Human), UniProt P36897, T204D). Nature of the test: TGFβR1 HIS T204D HTRF assay (labeled small molecule probe, anti-HIS detection antibody). Type of test: binding. The following applies: 1 nM HIS-TGFβR1 T204D, probe at Kd, 1 hour at room temperature, eleven concentrations. A general note: In TR-FRET formats the signal depends on donor and acceptor labels being close together.
Take `Fc1cnccc1Nc1nc(-c2cccc(C(F)F)n2)nc2[nH]ccc12` [Example 2, 2-(6-(difluoromethyl)pyridin-2-yl)-N-(3-fluoropyridin-4-yl)-7H-pyrrolo[2,3-d]pyrimidin-4-amine]: the IC50 amounted to 250 pM.

Consider `CC(=O)Nc1cc(Nc2nc(-c3cccc(C(F)F)n3)nc3[nH]ccc23)ccn1` [Example 3, N-(4-((2-(6-(difluoromethyl)pyridin-2-yl)-7H-pyrrolo[2,3-d]pyrimidin-4-yl)amino)pyridin-2-yl)acetamide], for which the IC50 is 780 pM.

Regarding `O=C(CN1CCCC1)Nc1cc(Nc2nc(-c3cccc(C(F)(F)F)n3)nc3[nH]ccc23)ccn1` [Example 4, 2-(pyrrolidin-1-yl)-N-(4-((2-(6-(trifluoromethyl)pyridin-2-yl)-7H-pyrrolo[2,3-d]pyrimidin-4-yl)amino)pyridin-2-yl)acetamide], the IC50 was determined as 420 pM. Against the preceding molecule, the IC50 is about 1.9-fold lower.

Consider `CN1CCN(CC(=O)Nc2cc(Nc3nc(-c4cccc(C(F)(F)F)n4)nc4[nH]ccc34)ccn2)CC1` [Example 5, 2-(4-methylpiperazin-1-yl)-N-(4-((2-(6-(trifluoromethyl)pyridin-2-yl)-7H-pyrrolo[2,3-d]pyrimidin-4-yl)amino)pyridin-2-yl)acetamide], for which the IC50 worked out at 530 pM.

`Cc1c[nH]c2nc(-c3cccc(C(F)F)n3)nc(Nc3ccncc3F)c12` [Example 6, 2-(6-(difluoromethyl)pyridin-2-yl)-N-(3-fluoropyridin-4-yl)-5-methyl-7H-pyrrolo[2,3-d]pyrimidin-4-amine] had an IC50 of 760 pM.

In turn, `CN1CCN(Cc2c[nH]c3nc(-c4cccc(C(F)F)n4)nc(Nc4ccncc4F)c23)CC1` [Example 7, 2-(6-(difluoromethyl)pyridin-2-yl)-N-(3-fluoropyridin-4-yl)-5-((4-methylpiperazin-1-yl)methyl)-7H-pyrrolo[2,3-d]pyrimidin-4-amine] returned an IC50 of 3700 pM.

The molecule `Fc1cnccc1Nc1nc(-c2ccccn2)nc2[nH]ccc12` [Example 8, N-(3-fluoropyridin-4-yl)-2-(pyridin-2-yl)-7H-pyrrolo[2,3-d]pyrimidin-4-amine] came in with an IC50 of 260 pM.

`c1ccc(-c2nc(-n3ccc4cnccc43)c3cc[nH]c3n2)nc1` [Example 9, 2-(pyridin-2-yl)-4-(1H-pyrrolo[3,2-c]pyridin-1-yl)-7H-pyrrolo[2,3-d]pyrimidine] came in with an IC50 of 1200 pM. This IC50 lies about 4.6-fold higher than the previous one.

`Cc1nc(-c2nc(Nc3ccncc3F)c3cc[nH]c3n2)ccc1F` [Example 11, 2-(5-fluoro-6-methylpyridin-2-yl)-N-(3-fluoropyridin-4-yl)-7H-pyrrolo[2,3-d]pyrimidin-4-amine]: half-maximal inhibition (IC50) was put at 600 pM.

`FC(F)c1cccc(-c2nc(-n3ccc4cnccc43)c3cc[nH]c3n2)n1` [Example 12, 2-(6-(difluoromethyl)pyridin-2-yl)-4-(1H-pyrrolo[3,2-c]pyridin-1-yl)-7H-pyrrolo[2,3-d]pyrimidine] gave an IC50 of 640 pM.

In the case of `Cc1nc(-c2nc(Nc3cc(Cl)ncc3F)c3cc[nH]c3n2)ccc1F` [Example 13, N-(2-chloro-5-fluoropyridin-4-yl)-2-(5-fluoro-6-methylpyridin-2-yl)-7H-pyrrolo[2,3-d]pyrimidin-4-amine], the IC50 turned out to be 4000 pM. Compared with the last molecule, the IC50 is about 6.2-fold higher.

`Fc1ccc(-c2nc(Nc3ccncc3F)c3cc[nH]c3n2)nc1` [Example 14, 2-(5-fluoropyridin-2-yl)-N-(3-fluoropyridin-4-yl)-7H-pyrrolo[2,3-d]pyrimidin-4-amine] came in with an IC50 of 910 pM.

`FC(F)c1cccc(-c2nc(Nc3ccnc(Cl)n3)c3cc[nH]c3n2)n1` [Example 15, N-(2-chloropyrimidin-4-yl)-2-(6-(difluoromethyl)pyridin-2-yl)-7H-pyrrolo[2,3-d]pyrimidin-4-amine]: half-maximal inhibition (IC50) was put at 160000 pM.

Molecule `CC(=O)Nc1cc(Nc2nc(-c3cccc(C(F)F)n3)nc3[nH]ccc23)c(F)cn1` [Example 16, N-(4-((2-(6-(difluoromethyl)pyridin-2-yl)-7H-pyrrolo[2,3-d]pyrimidin-4-yl)amino)-5-fluoropyridin-2-yl)acetamide] came in with an IC50 of 710 pM.

Molecule `COC(=O)Nc1cc(Nc2nc(-c3cccc(C(F)F)n3)nc3[nH]ccc23)ccn1` [Example 17, methyl (4-((2-(6-(difluoromethyl)pyridin-2-yl)-7H-pyrrolo[2,3-d]pyrimidin-4-yl)amino)pyridin-2-yl)carbamate] came in with an IC50 of 760 pM.

Molecule `CC(=O)Nc1cc(Nc2nc(-c3ccc(F)c(C)n3)nc3[nH]ccc23)c(F)cn1` [Example 18, N-(5-fluoro-4-((2-(5-fluoro-6-methylpyridin-2-yl)-7H-pyrrolo[2,3-d]pyrimidin-4-yl)amino)pyridin-2-yl)acetamide] registered an IC50 of 1300 pM.

The molecule `O=C1CCCN1c1cc(Nc2nc(-c3cccc(C(F)F)n3)nc3[nH]ccc23)ccn1` [Example 19, 1-(4-((2-(6-(difluoromethyl)pyridin-2-yl)-7H-pyrrolo[2,3-d]pyrimidin-4-yl)amino)pyridin-2-yl)pyrrolidin-2-one] displayed an IC50 of 5800 pM.

As to `CC(=O)Nc1cc(Nc2nc(-c3ccccn3)nc3[nH]ccc23)ccn1` [Example 21, N-(4-((2-(pyridin-2-yl)-7H-pyrrolo[2,3-d]pyrimidin-4-yl)amino)pyridin-2-yl)acetamide], the IC50 was determined as 900 pM.

With `CC(=O)Nc1cc(Nc2nc(-c3cccc(C)n3)nc3[nH]ccc23)ccn1` [Example 22, N-(4-((2-(6-methylpyridin-2-yl)-7H-pyrrolo[2,3-d]pyrimidin-4-yl)amino)pyridin-2-yl)acetamide], 1000 pM corresponded to half-maximal inhibition (IC50).

The molecule `CC(=O)Nc1cc(Nc2nc(-c3ccc(C(F)(F)F)cn3)nc3[nH]ccc23)ccn1` [Example 23, N-(4-((2-(5-(trifluoromethyl)pyridin-2-yl)-7H-pyrrolo[2,3-d]pyrimidin-4-yl)amino)pyridin-2-yl)acetamide] gave an IC50 of 4700 pM.

The molecule `CCC(=O)Nc1cc(Nc2nc(-c3cccc(C(F)(F)F)n3)nc3[nH]ccc23)ccn1` [Example 24, N-(4-((2-(6-(trifluoromethyl)pyridin-2-yl)-7H-pyrrolo[2,3-d]pyrimidin-4-yl)amino)pyridin-2-yl)propionamide] displayed an IC50 of 740 pM.

With `CC(=O)Nc1cc(Nc2nc(-c3cccc(C(F)F)n3)nc3[nH]cc(C)c23)ccn1` [Example 25, N-(4-((2-(6-(difluoromethyl)pyridin-2-yl)-5-methyl-7H-pyrrolo[2,3-d]pyrimidin-4-yl)amino)pyridin-2-yl)acetamide], the IC50 came out at 1500 pM.

As to `CC(C)(C)CC(=O)Nc1cc(Nc2nc(-c3cccc(C(F)(F)F)n3)nc3[nH]ccc23)ccn1` [Example 26, 3,3-dimethyl-N-(4-((2-(6-(trifluoromethyl)pyridin-2-yl)-7H-pyrrolo[2,3-d]pyrimidin-4-yl)amino)pyridin-2-yl)butanamide], the IC50 is 2700 pM.

As to `CC(C)CC(=O)Nc1cc(Nc2nc(-c3cccc(C(F)(F)F)n3)nc3[nH]ccc23)ccn1` [Example 27, 3-methyl-N-(4-((2-(6-(trifluoromethyl)pyridin-2-yl)-7H-pyrrolo[2,3-d]pyrimidin-4-yl)amino)pyridin-2-yl)butanamide], the IC50 was determined as 850 pM.

Molecule `CS(=O)(=O)Nc1cc(Nc2nc(-c3cccc(C(F)(F)F)n3)nc3[nH]ccc23)ccn1` [Example 28, N-(4-((2-(6-(trifluoromethyl)pyridin-2-yl)-7H-pyrrolo[2,3-d]pyrimidin-4-yl)amino)pyridin-2-yl)methanesulfonamide] displayed an IC50 of 970000 pM.

`CC(=O)Nc1cc(Nc2nc(-c3ccc(F)c(C)n3)nc3[nH]ccc23)ccn1` [Example 29, N-(4-((2-(5-fluoro-6-methylpyridin-2-yl)-7H-pyrrolo[2,3-d]pyrimidin-4-yl)amino)pyridin-2-yl)acetamide] returned an IC50 of 770 pM.

Regarding `COC(=O)Nc1cc(Nc2nc(-c3cccc(C(F)(F)F)n3)nc3[nH]ccc23)ccn1` [Example 30, methyl (4-((2-(6-(trifluoromethyl)pyridin-2-yl)-7H-pyrrolo[2,3-d]pyrimidin-4-yl)amino)pyridin-2-yl)carbamate], the IC50 came out at 2500 pM.

As to `CC(=O)Nc1nccc(Nc2nc(-c3cccc(C(F)F)n3)nc3[nH]ccc23)c1F` [Example 31, N-(4-((2-(6-(difluoromethyl)pyridin-2-yl)-7H-pyrrolo[2,3-d]pyrimidin-4-yl)amino)-3-fluoropyridin-2-yl)acetamide], the IC50 amounted to 370 pM. Compared with the last molecule, the IC50 is about 6.8-fold lower.

Regarding `O=C(CN1CCOCC1)Nc1cc(Nc2nc(-c3cccc(C(F)(F)F)n3)nc3[nH]ccc23)ccn1` [Example 32, 2-morpholino-N-(4-((2-(6-(trifluoromethyl)pyridin-2-yl)-7H-pyrrol[2,3-d]pyrimidin-4-yl)amino)pyridin-2-yl)acetamide], the IC50 was determined as 770 pM.

Consider `Cc1cccc(-c2nc(Nc3ccncc3F)c3c(C)c[nH]c3n2)n1` [Example 33, N-(3-fluoropyridin-4-yl)-5-methyl-2-(6-methylpyridin-2-yl)-7H-pyrrolo[2,3-d]pyrimidin-4-amine], for which the IC50 amounted to 250 pM.

The molecule `Cc1c[nH]c2nc(-c3cccc(C(F)(F)F)n3)nc(Nc3ccncc3F)c12` [Example 34, N-(3-fluoropyridin-4-yl)-5-methyl-2-(6-(trifluoromethyl)pyridin-2-yl)-7H-pyrrolo[2,3-d]pyrimidin-4-amine] returned an IC50 of 4500 pM.

In the case of `CC(C)(O)CNCc1c[nH]c2nc(-c3cccc(C(F)F)n3)nc(Nc3ccncc3F)c12` [Example 35, 1-(((2-(6-(difluoromethyl)pyridin-2-yl)-4-((3-fluoropyridin-4-yl)amino)-7H-pyrrolo[2,3-d]pyrimidin-5-yl)methyl)amino)-2-methylpropan-2-ol], the IC50 came to 1400 pM.

The molecule `CC(=O)Nc1nccc(Nc2nc(-c3cccc(C(F)(F)F)n3)nc3[nH]ccc23)c1F` [Example 36, N-[3-fluoro-4-({2-[6-(trifluoromethyl)pyridin-2-yl]-7H-pyrrolo[2,3-d]pyrimidin-4-yl}amino)pyridin-2-yl]acetamide] returned an IC50 of 1700 pM. This IC50 and that of the molecule before are within 1.5-fold of each other.

With `Cc1cnccc1Nc1nc(-c2cccc(C(F)(F)F)n2)nc2[nH]ccc12` [Example 37, 3-methyl-N-{2-[6-(trifluoromethyl)pyridin-2-yl]-7H-pyrrolo[2,3-d]pyrimidin-4-yl}pyridin-4-amine], the midpoint of inhibition, the IC50, lay at 870 pM.
